For data set [1] the following is noted: 298.2 K; 101.33 kPa; Liquid; Vibrating tube method.
Data set [2] can be described thus: refractive index (Na D-line) (dimensionless). The note with it: 298.2 K; 101.33 kPa; Liquid; Standard Abbe refractometry.
The nature of data set [3]: wn = mass fraction of the nth substance listed. Conditions: 298.2 K; 101.3 kPa; Liquid; Vibrating tube method; w1 = 0.85.
Data set [4] in a line: refractive index (Na D-line) (dimensionless); wn = mass fraction of the nth substance listed. Conditions: 298.2 K; 101.3 kPa; Liquid; Standard Abbe refractometry; w1 = 0.85.

One may read the mass density as mass per unit of volume. The term refractive index denotes a measure of how strongly the sample bends light.

Molecules are shown by their SMILES. Numbers after ± are expanded uncertainties.

`CCCCCOC(C)=O` [pentyl ethanoate]: the mass density in data set [1] was determined as 872.02 ± 1.2 kg/m3. Further, in data set [2], the refractive index was found to be 1.3991 ± 0.0011.

In the case of `O` [water], the refractive index in data set [2] is reported as 1.3325 ± 0.001.

Consider `O=P(O)(O)O` [phosphoric acid] + O, for which the mass density in data set [3] turned out to be 1682.7 ± 1.1 kg/m3. Further, the refractive index in data set [4] worked out at 1.432 ± 0.001.

For `CCCOC(C)=O` [propyl ethanoate], in data set [1], the mass density was determined as 882.26 ± 1.2 kg/m3. In addition, the refractive index in data set [2] was determined as 1.383 ± 0.0011.

The values above are taken from the NIST ThermoML archive (doi:10.1016/j.jct.2018.03.025).
